Results: ChEMBL document CHEMBL3991601, “The target landscape of clinical kinase drugs” (Science, 2017)
Where a name gives a salt, the structure may show the parent alone. Calls of active or inactive are those of the source.

Columns and labels:
[1] = molecular target: Serine/threonine-protein kinase MRCK gamma (Homo sapiens, UniProt Q6DT37)
[2] = molecular target: T1, Phosphorylase b kinase gamma catalytic chain, liver/testis isoform (Homo sapiens, UniProt P15735)
T1 sequence (P15735 whole entry): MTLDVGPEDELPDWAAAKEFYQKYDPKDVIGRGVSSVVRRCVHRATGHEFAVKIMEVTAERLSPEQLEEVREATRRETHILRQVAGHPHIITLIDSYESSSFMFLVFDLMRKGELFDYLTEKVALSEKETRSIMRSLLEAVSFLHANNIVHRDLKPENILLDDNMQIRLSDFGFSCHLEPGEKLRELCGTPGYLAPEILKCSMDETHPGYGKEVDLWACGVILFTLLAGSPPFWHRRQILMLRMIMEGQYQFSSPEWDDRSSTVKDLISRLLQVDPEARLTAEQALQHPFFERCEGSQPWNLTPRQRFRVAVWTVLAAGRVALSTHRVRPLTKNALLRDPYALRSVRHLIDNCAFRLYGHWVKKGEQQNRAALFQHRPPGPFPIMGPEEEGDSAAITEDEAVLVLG

[3] = molecular target: T2, Glycogen phosphorylase, brain form (Homo sapiens, UniProt P11216)
T2 sequence (P11216 whole entry): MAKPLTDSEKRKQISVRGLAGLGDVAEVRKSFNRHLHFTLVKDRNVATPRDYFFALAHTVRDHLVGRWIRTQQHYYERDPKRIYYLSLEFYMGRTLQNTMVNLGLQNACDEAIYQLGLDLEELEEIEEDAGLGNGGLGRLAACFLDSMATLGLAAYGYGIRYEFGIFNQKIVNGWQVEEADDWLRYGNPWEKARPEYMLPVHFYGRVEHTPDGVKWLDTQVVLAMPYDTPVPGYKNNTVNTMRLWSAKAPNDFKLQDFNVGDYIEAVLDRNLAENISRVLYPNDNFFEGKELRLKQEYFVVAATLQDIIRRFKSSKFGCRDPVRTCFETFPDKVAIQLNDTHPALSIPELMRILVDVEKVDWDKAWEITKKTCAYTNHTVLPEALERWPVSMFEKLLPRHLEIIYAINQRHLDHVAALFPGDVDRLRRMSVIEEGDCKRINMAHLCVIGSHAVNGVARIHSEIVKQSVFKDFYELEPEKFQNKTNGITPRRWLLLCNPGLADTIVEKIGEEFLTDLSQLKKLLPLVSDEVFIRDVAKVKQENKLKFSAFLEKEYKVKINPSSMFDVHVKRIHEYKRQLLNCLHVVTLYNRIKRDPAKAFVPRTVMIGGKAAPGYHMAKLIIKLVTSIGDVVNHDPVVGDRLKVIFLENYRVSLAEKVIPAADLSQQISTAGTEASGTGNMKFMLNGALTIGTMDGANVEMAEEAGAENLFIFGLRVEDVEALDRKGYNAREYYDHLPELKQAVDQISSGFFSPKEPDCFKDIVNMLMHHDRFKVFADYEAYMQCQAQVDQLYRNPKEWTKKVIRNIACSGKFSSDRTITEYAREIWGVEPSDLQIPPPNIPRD

ADP/ATP translocase 2 = molecular target: T3, ADP/ATP translocase 2 (Homo sapiens, UniProt P05141)
T3 sequence (P05141 whole entry): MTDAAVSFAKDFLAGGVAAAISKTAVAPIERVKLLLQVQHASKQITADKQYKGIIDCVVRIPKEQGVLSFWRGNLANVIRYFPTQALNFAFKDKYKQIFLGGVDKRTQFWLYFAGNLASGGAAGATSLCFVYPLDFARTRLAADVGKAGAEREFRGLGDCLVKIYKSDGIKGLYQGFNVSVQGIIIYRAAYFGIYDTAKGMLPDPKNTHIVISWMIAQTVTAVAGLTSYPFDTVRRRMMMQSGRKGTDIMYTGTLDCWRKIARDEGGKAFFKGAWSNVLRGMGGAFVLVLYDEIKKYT

[4] = molecular target: Structural maintenance of chromosomes protein 2 (Homo sapiens, UniProt O95347)
[5] = molecular target: T4, Serine/threonine-protein kinase TAO3 (Homo sapiens, UniProt Q9H2K8)
T4 sequence (Q9H2K8 whole entry): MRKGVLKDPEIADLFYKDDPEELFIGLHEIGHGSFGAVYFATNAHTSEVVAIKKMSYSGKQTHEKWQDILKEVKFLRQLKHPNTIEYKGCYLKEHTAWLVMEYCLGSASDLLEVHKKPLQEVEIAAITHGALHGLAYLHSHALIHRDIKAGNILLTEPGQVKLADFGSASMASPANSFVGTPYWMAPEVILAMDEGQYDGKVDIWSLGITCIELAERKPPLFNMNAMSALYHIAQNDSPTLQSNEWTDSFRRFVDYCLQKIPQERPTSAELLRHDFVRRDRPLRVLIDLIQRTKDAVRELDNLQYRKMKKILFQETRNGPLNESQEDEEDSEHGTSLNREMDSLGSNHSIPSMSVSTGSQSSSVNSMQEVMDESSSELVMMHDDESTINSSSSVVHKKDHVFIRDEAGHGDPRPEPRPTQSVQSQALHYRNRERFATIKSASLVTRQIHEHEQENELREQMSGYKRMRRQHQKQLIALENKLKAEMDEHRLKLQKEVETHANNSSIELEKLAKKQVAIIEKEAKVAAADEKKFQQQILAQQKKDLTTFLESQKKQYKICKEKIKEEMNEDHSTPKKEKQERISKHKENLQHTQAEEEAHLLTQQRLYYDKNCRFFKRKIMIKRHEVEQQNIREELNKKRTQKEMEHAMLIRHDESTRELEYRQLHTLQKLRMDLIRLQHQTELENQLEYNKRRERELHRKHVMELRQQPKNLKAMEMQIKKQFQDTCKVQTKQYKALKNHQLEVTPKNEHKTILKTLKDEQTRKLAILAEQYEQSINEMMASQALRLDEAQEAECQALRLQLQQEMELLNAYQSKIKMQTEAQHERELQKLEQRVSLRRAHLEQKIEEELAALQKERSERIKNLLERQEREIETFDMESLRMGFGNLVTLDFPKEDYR
Further: in the data inactive means no Kd found up to 30 µM.

Serine/threonine-protein kinase MRCK gamma, sequence (Q6DT37 whole entry, canonical isoform): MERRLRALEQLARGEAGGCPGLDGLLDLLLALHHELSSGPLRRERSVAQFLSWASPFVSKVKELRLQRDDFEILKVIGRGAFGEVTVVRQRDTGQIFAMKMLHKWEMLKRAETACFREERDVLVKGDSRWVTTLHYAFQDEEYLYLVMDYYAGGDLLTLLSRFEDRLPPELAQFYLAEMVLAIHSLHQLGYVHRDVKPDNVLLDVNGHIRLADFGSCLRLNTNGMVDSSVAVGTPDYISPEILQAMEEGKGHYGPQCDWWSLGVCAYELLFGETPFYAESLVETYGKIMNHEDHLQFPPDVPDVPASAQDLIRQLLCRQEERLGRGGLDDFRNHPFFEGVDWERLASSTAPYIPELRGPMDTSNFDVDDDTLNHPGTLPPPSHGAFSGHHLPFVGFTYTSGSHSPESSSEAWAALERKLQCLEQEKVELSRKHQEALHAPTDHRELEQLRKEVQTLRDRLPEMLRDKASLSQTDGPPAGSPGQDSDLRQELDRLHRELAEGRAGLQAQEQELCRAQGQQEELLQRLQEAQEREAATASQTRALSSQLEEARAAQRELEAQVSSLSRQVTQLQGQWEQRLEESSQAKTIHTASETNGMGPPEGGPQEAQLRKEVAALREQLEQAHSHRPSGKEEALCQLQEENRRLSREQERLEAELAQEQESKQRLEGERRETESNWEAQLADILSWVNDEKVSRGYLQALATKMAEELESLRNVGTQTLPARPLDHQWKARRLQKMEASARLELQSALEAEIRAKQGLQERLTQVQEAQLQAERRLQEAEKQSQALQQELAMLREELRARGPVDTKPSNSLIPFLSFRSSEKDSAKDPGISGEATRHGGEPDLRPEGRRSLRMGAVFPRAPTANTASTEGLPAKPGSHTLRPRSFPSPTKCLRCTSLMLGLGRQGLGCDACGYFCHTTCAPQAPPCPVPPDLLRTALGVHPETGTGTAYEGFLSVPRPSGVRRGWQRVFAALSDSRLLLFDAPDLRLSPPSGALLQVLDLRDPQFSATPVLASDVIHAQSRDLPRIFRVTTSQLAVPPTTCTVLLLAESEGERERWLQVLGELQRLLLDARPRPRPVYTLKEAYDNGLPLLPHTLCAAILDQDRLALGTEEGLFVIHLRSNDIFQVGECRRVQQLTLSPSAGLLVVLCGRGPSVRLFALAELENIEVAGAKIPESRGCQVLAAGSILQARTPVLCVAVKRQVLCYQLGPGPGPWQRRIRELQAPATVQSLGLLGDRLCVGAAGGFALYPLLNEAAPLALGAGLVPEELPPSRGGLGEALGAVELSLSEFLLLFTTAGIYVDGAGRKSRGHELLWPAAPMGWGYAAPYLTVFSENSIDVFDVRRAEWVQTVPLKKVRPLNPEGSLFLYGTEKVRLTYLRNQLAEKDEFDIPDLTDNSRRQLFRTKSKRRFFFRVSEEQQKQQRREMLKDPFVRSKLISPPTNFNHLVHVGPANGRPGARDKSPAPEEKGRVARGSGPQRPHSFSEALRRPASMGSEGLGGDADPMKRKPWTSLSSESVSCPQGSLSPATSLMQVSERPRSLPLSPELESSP
Structural maintenance of chromosomes protein 2, sequence (O95347 whole entry): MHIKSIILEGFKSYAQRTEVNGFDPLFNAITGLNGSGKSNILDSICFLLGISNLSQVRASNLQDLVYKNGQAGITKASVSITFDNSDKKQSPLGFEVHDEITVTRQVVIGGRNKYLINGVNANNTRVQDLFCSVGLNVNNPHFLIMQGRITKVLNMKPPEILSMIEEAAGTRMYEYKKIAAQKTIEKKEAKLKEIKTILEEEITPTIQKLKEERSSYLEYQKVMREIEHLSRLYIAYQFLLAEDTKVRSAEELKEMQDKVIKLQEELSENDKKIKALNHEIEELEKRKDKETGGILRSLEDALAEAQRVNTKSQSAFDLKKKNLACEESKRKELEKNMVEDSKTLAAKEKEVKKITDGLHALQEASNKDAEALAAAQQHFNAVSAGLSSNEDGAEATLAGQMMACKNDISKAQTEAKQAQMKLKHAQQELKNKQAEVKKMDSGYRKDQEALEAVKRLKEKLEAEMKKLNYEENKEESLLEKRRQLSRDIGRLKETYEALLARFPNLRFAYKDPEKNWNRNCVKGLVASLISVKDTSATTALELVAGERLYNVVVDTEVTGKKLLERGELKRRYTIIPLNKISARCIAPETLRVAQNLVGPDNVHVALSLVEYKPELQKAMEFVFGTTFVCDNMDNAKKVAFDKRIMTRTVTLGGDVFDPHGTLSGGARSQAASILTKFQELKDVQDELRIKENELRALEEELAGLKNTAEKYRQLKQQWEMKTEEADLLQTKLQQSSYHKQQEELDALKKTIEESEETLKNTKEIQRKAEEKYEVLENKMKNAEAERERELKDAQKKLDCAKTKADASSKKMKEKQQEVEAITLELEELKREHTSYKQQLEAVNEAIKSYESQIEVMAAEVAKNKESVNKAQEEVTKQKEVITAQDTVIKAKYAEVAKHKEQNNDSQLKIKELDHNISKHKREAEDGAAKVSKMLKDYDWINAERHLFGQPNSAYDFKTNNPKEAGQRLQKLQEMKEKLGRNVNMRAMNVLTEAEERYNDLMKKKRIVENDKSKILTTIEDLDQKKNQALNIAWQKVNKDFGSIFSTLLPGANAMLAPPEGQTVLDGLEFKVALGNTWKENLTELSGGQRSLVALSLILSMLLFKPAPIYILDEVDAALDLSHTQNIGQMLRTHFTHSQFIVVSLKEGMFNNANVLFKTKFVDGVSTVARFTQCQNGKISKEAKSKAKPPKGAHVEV

Compound	Kd [1]	Kd [2]	Kd [3]	Kd (ADP/ATP translocase 2)	Kd [4]	Kd [5]
C[C@@H](Oc1cc(C(=O)Nc2ccc(C(=O)N3CCN(C)CC3)cc2)nnc1N)c1c(Cl)ccc(F)c1Cl	> 30 µM (inactive)	> 30 µM (inactive)	> 30 µM (inactive)	> 30 µM (inactive)	> 30 µM (inactive)	> 30 µM (inactive)
C[C@H]1CNCCCN1S(=O)(=O)c1cccc2cncc(F)c12	> 30 µM (inactive)	> 30 µM (inactive)	> 30 µM (inactive)	> 30 µM (inactive)	> 30 µM (inactive)	11.8 µM (active)
CC(=O)c1cnc2ccc(-c3cc(Cl)c(O)c(Cl)c3)nc2c1N[C@H]1CC[C@H](CN(C)C)CC1	0.063 µM	0.397 µM (active)	> 30 µM (inactive)	> 30 µM (inactive)	> 30 µM (inactive)	0.021 µM (active)
C=CC(=O)N1CCC[C@H](n2c(=O)n(-c3ccc(Oc4ccccc4)cc3)c3c(N)ncnc32)C1	> 30 µM (inactive)	> 30 µM (inactive)	> 30 µM (inactive)	> 30 µM (inactive)	> 30 µM (inactive)	> 30 µM (inactive)
Cc1nc2cc(-c3nn(C(C)C)c4ncnc(N)c34)ccc2o1	> 30 µM (inactive)	> 30 µM (inactive)	> 30 µM (inactive)	> 30 µM (inactive)	> 30 µM (inactive)	> 30 µM (inactive)
Nc1ncnc2c1c(-c1cccc(OCc3ccccc3)c1)cn2[C@H]1C[C@@H](CN2CCC2)C1 [AEW-541]	> 30 µM (inactive)	> 30 µM (inactive)	> 30 µM (inactive)	> 30 µM (inactive)	> 30 µM (inactive)	> 30 µM (inactive)
Cc1nc(NC(=O)N2CCC[C@H]2C(N)=O)sc1-c1ccnc(C(C)(C)C(F)(F)F)c1 [ALPELISIB]	> 30 µM (inactive)	> 30 µM (inactive)	> 30 µM (inactive)	> 30 µM (inactive)	> 30 µM (inactive)	> 30 µM (inactive)
COc1cc([C@@H]2c3cc4c(cc3[C@H](O)[C@H]3COC(=O)[C@@H]23)OCO4)cc(OC)c1OC [AXL-1717]	> 30 µM (inactive)	> 30 µM (inactive)	> 30 µM (inactive)	> 30 µM (inactive)	> 30 µM (inactive)	> 30 µM (inactive)
NC(=O)Nc1cc(-c2cccc(F)c2)sc1C(=O)N[C@H]1CCCNC1 [AZD-7762]	> 30 µM (inactive)	> 30 µM (inactive)	> 30 µM (inactive)	> 30 µM (inactive)	> 30 µM (inactive)	> 30 µM (inactive)
COc1c(OCCCN2CCOCC2)ccc2c1N=C(NC(=O)c1cnc(N)nc1)N1CCN=C21 [COPANLISIB]	> 30 µM (inactive)	> 30 µM (inactive)	> 30 µM (inactive)	> 30 µM (inactive)	> 30 µM (inactive)	> 30 µM (inactive)
COCC(=O)NC/C=C/c1ccc2ncnc(Nc3ccc(Oc4ccc(C)nc4)c(C)c3)c2c1 [CP-724714]	> 30 µM (inactive)	> 30 µM (inactive)	> 30 µM (inactive)	> 30 µM (inactive)	> 30 µM (inactive)	> 30 µM (inactive)
CCS(=O)(=O)N1CCN(c2ccc(Nc3ncc(C(N)=O)c(NC4CC4)n3)cc2)CC1 [Cerdulatinib Hydrochloride]	> 30 µM (inactive)	> 30 µM (inactive)	> 30 µM (inactive)	> 30 µM (inactive)	> 30 µM (inactive)	8.26 µM (active)

More lines, now with the values ahead:

Kd [1]	Kd [2]	Kd [3]	Kd (ADP/ATP translocase 2)	Kd [4]	Kd [5]	Compound
> 30 µM (inactive)	> 30 µM (inactive)	> 30 µM (inactive)	> 30 µM (inactive)	> 30 µM (inactive)	1.77 µM (active)	Cc1csc(-c2nnc(Nc3ccc(Oc4ncccc4-c4ccnc(N)n4)cc3)c3ccccc23)c1 [AMG-900]
> 30 µM (inactive)	> 30 µM (inactive)	> 30 µM (inactive)	> 30 µM (inactive)	> 30 µM (inactive)	> 30 µM (inactive)	C=CC(=O)Nc1cc2c(Nc3ccc(F)c(Cl)c3)ncnc2cc1C#CC(C)(C)N1CCN(C)CC1 [AV-412 FREE BASE]
> 30 µM (inactive)	> 30 µM (inactive)	> 30 µM (inactive)	> 30 µM (inactive)	> 30 µM (inactive)	> 30 µM (inactive)	Cc1cc(C(=O)NOCCO)c(Nc2ccc(I)cc2F)n(C)c1=O [AZD-8330]
> 30 µM (inactive)	> 30 µM (inactive)	> 30 µM (inactive)	> 30 µM (inactive)	> 30 µM (inactive)	> 30 µM (inactive)	Cn1cnc2c(F)c(Nc3ccc(Br)cc3F)c(C(=O)NOCCO)cc21 [BINIMETINIB]
> 30 µM (inactive)	> 30 µM (inactive)	> 30 µM (inactive)	> 30 µM (inactive)	> 30 µM (inactive)	> 30 µM (inactive)	CCn1c(C(=O)N(C2CC2)C2CC2)cc2c3c(ncn3C)c(Nc3cc(C)n(C)n3)nc21 [BMS-911543]
> 30 µM (inactive)	> 30 µM (inactive)	> 30 µM (inactive)	> 30 µM (inactive)	> 30 µM (inactive)	> 30 µM (inactive)	COc1cc2ncnc(Oc3cccc(NC(=O)Nc4cc(C(C)(C)C(F)(F)F)on4)c3)c2cc1OC [CEP-32496]
> 30 µM (inactive)	> 30 µM (inactive)	> 30 µM (inactive)	> 30 µM (inactive)	> 30 µM (inactive)	> 30 µM (inactive)	Cc1cc(Nc2ncc(Cl)c(Nc3ccccc3S(=O)(=O)C(C)C)n2)c(OC(C)C)cc1C1CCNCC1 [CERITINIB]
> 30 µM (inactive)	> 30 µM (inactive)	> 30 µM (inactive)	> 30 µM (inactive)	> 30 µM (inactive)	> 30 µM (inactive)	C#Cc1cccc(Nc2ncnc3cc(OC)c(OCCCCCCC(=O)NO)cc23)c1 [CUDC-101]
> 30 µM (inactive)	> 30 µM (inactive)	–	> 30 µM (inactive)	> 30 µM (inactive)	> 30 µM (inactive)	CO[C@H]1C[C@@H]2CC[C@@H](C)[C@@](O)(O2)C(=O)C(=O)N2CCCC[C@H]2C(=O)O[C@H]([C@H](C)C[C@@H]2CC[C@@H](OC(=O)C(C)(CO)CO)[C@H](OC)C2)CC(=O)[C@H](C)/C=C(\C)[C@@H](O)[C@@H](OC)C(=O)[C@H](C)C[C@H](C)/C=C/C=C/C=C/1C [TEMSIROLIMUS]
